Key:
RAW264.7 [1] = experiment: Antiinflammatory activity against mouse RAW264.7 cells assessed as inhibition of LPS-induced NO production incubated for 30 mins by microplate reader analysis; format: functional, cell-based; conditions: RAW264.7, 0.5 h
RAW264.7 [2] = experiment: Antiinflammatory activity against mouse RAW264.7 cells assessed as inhibition of LPS-induced NO production at 25 uM incubated for 30 mins by microplate reader analysis; format: functional; conditions: RAW264.7, 0.5 h
[3] = Cytotoxicity against mouse RAW264.7 cells after 18 hrs by MTT assay; format: cell-based

`C=C1C(=O)OC[C@H]1CCOC(=O)Nc1ccc(OC)cc1` showed an IC50 (RAW264.7 [1]) of 0.71 µM, an inhibition at 25 µM (RAW264.7 [2]) of over 94% and a CC50 at 18 h [3] of 12.4 µM.
Compound `C=C1C(=O)OC[C@@H]1CCOC(=O)Nc1cccc(Br)c1` has an IC50 (RAW264.7 [1]) of 0.84 µM, an inhibition at 25 µM (RAW264.7 [2]) of over 94% and a CC50 at 18 h [3] of 17.7 µM.
Compound `C=C1C(=O)OC[C@H]1CCOC(=O)Nc1ccc(CC)cc1` has an IC50 (RAW264.7 [1]) of 0.84 µM, an inhibition at 25 µM (RAW264.7 [2]) of over 94% and a CC50 at 18 h [3] of 11.3 µM.
`C=C1C(=O)OC[C@@H]1CCOC(=O)Nc1ccccc1` showed an IC50 (RAW264.7 [1]) of 0.78 µM, an inhibition at 25 µM (RAW264.7 [2]) of over 94% and a CC50 at 18 h [3] of 22.3 µM.
For `C=C1C(=O)OC[C@H]1CCOC(=O)Nc1ccc(C(C)C)cc1`, the IC50 (RAW264.7 [1]) was 0.34 µM, the inhibition at 25 µM (RAW264.7 [2]) was over 94% and the CC50 at 18 h [3] was 12.4 µM.
For `C=C1C(=O)OC[C@@H]1CCOC(=O)Nc1cc(C)cc(C)c1`, the IC50 (RAW264.7 [1]) was 1.24 µM, the inhibition at 25 µM (RAW264.7 [2]) was over 94% and the CC50 at 18 h [3] was 13.6 µM.
For `C=C1C(=O)OC[C@H]1CCOC(=O)Nc1ccc(I)cc1`, the IC50 (RAW264.7 [1]) was 0.49 µM, the inhibition at 25 µM (RAW264.7 [2]) was over 94% and the CC50 at 18 h [3] was 12.8 µM.
Work on `C=C1C(=O)OC[C@@H]1CCOC(=O)Nc1ccc(Br)cc1` yielded an IC50 (RAW264.7 [1]) of 0.72 µM, an inhibition at 25 µM (RAW264.7 [2]) of over 94% and a CC50 at 18 h [3] of 19.8 µM.
Work on `C=C1C(=O)OC[C@@H]1CCOC(=O)Nc1ccc(CCCC)cc1` yielded an IC50 (RAW264.7 [1]) of 1.23 µM, an inhibition at 25 µM (RAW264.7 [2]) of over 94% and a CC50 at 18 h [3] of 9.95 µM.
For `C=C1C(=O)OC[C@@H]1CCOC(=O)Nc1ccc(OC)cc1`, the IC50 (RAW264.7 [1]) was 1.09 µM, the inhibition at 25 µM (RAW264.7 [2]) was over 94% and the CC50 at 18 h [3] was 11.9 µM.
`C=C1C(=O)OC[C@H]1CCOC(=O)Nc1ccccc1F` gave an IC50 (RAW264.7 [1]) of 0.35 µM, an inhibition at 25 µM (RAW264.7 [2]) of over 94% and a CC50 at 18 h [3] of 17.4 µM.
Work on `C=C1C(=O)OC[C@@H]1CCOC(=O)Nc1ccc(Cl)cc1` yielded an IC50 (RAW264.7 [1]) of 1.07 µM, an inhibition at 25 µM (RAW264.7 [2]) of over 94% and a CC50 at 18 h [3] of 10.3 µM.
Work on `C=C1C(=O)OC[C@@H]1CCOC(=O)Nc1cc(C(F)(F)F)cc(C(F)(F)F)c1` yielded an IC50 (RAW264.7 [1]) of 0.8 µM, an inhibition at 25 µM (RAW264.7 [2]) of over 94% and a CC50 at 18 h [3] of 12.4 µM.
In the case of `C=C1C(=O)OC[C@H]1CCOC(=O)Nc1ccc(C)c(C)c1`, the IC50 (RAW264.7 [1]) is reported as 1.09 µM, the inhibition at 25 µM (RAW264.7 [2]) is reported as over 94% and the CC50 at 18 h [3] is reported as 18.2 µM.
Compound `C=C1C(=O)OC[C@@H]1CCOC(=O)Nc1ccc(F)cc1F` has an IC50 (RAW264.7 [1]) of 0.7 µM, an inhibition at 25 µM (RAW264.7 [2]) of over 94% and a CC50 at 18 h [3] of 14.8 µM.
For `C=C1C(=O)OC[C@H]1CCOC(=O)Nc1ccc(C(=O)OCCCC)cc1`, the IC50 (RAW264.7 [1]) was 0.43 µM, the inhibition at 25 µM (RAW264.7 [2]) was over 94% and the CC50 at 18 h [3] was 8.94 µM.
Compound `C=C1C(=O)OC[C@H]1CCOC(=O)Nc1ccc(F)cc1F` has an IC50 (RAW264.7 [1]) of 0.33 µM, an inhibition at 25 µM (RAW264.7 [2]) of over 94% and a CC50 at 18 h [3] of 24.5 µM.
Compound `C=C1C(=O)OC[C@@H]1CCOC(=O)Nc1ccc(CC)cc1` has an IC50 (RAW264.7 [1]) of 1.26 µM, an inhibition at 25 µM (RAW264.7 [2]) of over 94% and a CC50 at 18 h [3] of 7.58 µM.
For `C=C1C(=O)OC[C@@H]1CCOC(=O)Nc1ccccc1F`, the IC50 (RAW264.7 [1]) was 0.69 µM, the inhibition at 25 µM (RAW264.7 [2]) was over 94% and the CC50 at 18 h [3] was 24.2 µM.
Compound `C=C1C(=O)OC[C@H]1CCOC(=O)Nc1c(C)cccc1C(C)C` has an IC50 (RAW264.7 [1]) of 1.94 µM, an inhibition at 25 µM (RAW264.7 [2]) of 80.7% and a CC50 at 18 h [3] of 22.2 µM.
Work on `N=C(N)NN` [PIMAGEDINE] yielded an IC50 (RAW264.7 [1]) of 7.29 µM.
With `C=C1C(=O)OC[C@@H]1CCOC(=O)Nc1ccc(C(=O)OCCCC)cc1` the IC50 (RAW264.7 [1]) was 0.86 µM, the inhibition at 25 µM (RAW264.7 [2]) was over 94% and the CC50 at 18 h [3] was 12.7 µM.
With `C=C1C(=O)OC[C@H]1CCOC(=O)Nc1cc(C(F)(F)F)cc(C(F)(F)F)c1` the IC50 (RAW264.7 [1]) was 0.96 µM, the inhibition at 25 µM (RAW264.7 [2]) was over 94% and the CC50 at 18 h [3] was 13.9 µM.
In the case of `C=C1C(=O)OC[C@@H]1CCOC(=O)Nc1c(C)cccc1C(C)C`, the IC50 (RAW264.7 [1]) is reported as 5.98 µM, the inhibition at 25 µM (RAW264.7 [2]) is reported as 39.5% and the CC50 at 18 h [3] is reported as over 50 µM.
Compound `C=C1C(=O)OC[C@H]1CCOC(=O)Nc1ccc(Cl)cc1` has an IC50 (RAW264.7 [1]) of 0.39 µM, an inhibition at 25 µM (RAW264.7 [2]) of over 94% and a CC50 at 18 h [3] of 9.14 µM.
Compound `C=C1C(=O)OC[C@@H]1CCOC(=O)Nc1ccc(C(C)C)cc1` has an IC50 (RAW264.7 [1]) of 1.58 µM, an inhibition at 25 µM (RAW264.7 [2]) of over 94% and a CC50 at 18 h [3] of 15.3 µM.
`C=C1C(=O)OC[C@H]1CCOC(=O)Nc1ccccc1` gave an IC50 (RAW264.7 [1]) of 0.39 µM, an inhibition at 25 µM (RAW264.7 [2]) of over 94% and a CC50 at 18 h [3] of 14.8 µM.
`C=C1C(=O)OC[C@H]1CCOC(=O)Nc1cccc(Br)c1` showed an IC50 (RAW264.7 [1]) of 0.59 µM, an inhibition at 25 µM (RAW264.7 [2]) of over 94% and a CC50 at 18 h [3] of 21.8 µM.
In the case of `C=C1C(=O)OC[C@H]1CCOC(=O)Nc1ccc(CCCC)cc1`, the IC50 (RAW264.7 [1]) is reported as 0.62 µM, the inhibition at 25 µM (RAW264.7 [2]) is reported as over 94% and the CC50 at 18 h [3] is reported as 15.9 µM.
`C=C1C(=O)OC[C@H]1CCOC(=O)Nc1cc(C)cc(C)c1` showed an IC50 (RAW264.7 [1]) of 0.48 µM, an inhibition at 25 µM (RAW264.7 [2]) of over 94% and a CC50 at 18 h [3] of 12.7 µM.
In the case of `C=C1C(=O)OC[C@@H]1CCOC(=O)Nc1ccc(C)c(C)c1`, the IC50 (RAW264.7 [1]) is reported as 1.45 µM, the inhibition at 25 µM (RAW264.7 [2]) is reported as over 94% and the CC50 at 18 h [3] is reported as 13.7 µM.
In the case of `C=C1C(=O)OC[C@H]1CCOC(=O)Nc1ccc(Br)cc1`, the IC50 (RAW264.7 [1]) is reported as 0.35 µM, the inhibition at 25 µM (RAW264.7 [2]) is reported as over 94% and the CC50 at 18 h [3] is reported as 8.47 µM.
Work on `C=C1C(=O)OC[C@@H]1CCOC(=O)Nc1ccc(I)cc1` yielded an IC50 (RAW264.7 [1]) of 0.79 µM, an inhibition at 25 µM (RAW264.7 [2]) of over 94% and a CC50 at 18 h [3] of 12.5 µM.

From ChEMBL document CHEMBL3407424, “Synthesis and evaluation of new α-methylene-γ-lactone carbamates with NO production inhibitory effects in lipopolysaccharide-induced RAW 264.7 macrophages” (Eur J Med Chem, 2015)
